# Measured values: patent US20240327393A1 (SIRONAX LTD., priority 2021, published 2024)
# Tested on: HT-1080 (ATCC, CCL-121) cells
# Assay: HT-1080 cell viability assay with ferroptosis inducer RSL3 (Cell Titer-Glo)
# Type: cell-based
# Conditions: Homo sapiens; HT-1080 cells treated with RSL3; 3-fold, 10-point dilution, 1.1 μM highest concentration; Table 2; read-out: EC50 (nM), ferroptosis inhibitory activity
# Procedure, shortened: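 EC50 was derived by sigmoidal dose-response regression of CellTiter-Glo luminescence viability, expressed relative to untreated wells. Compounds were tested in a ten-point, threefold dilution series (highest 1.1 μM) in the presence of the ferroptosis inducer RSL3. HT-1080 cells had been seeded at 6000 per well and grown overnight first.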
row,EC50,Structure (SMILES)
1,100 to 1000 nM,"Cn1c(=O)n(C)c2cc(Nc3ccsc3)ccc21 [Compound 342, 1,3-dimethyl-5-(thiophen-3-ylamino)-1,3-dihydro-2H-benzo[d]imidazol-2-one]"
2,0.1 to 100 nM,"Cn1c(=O)n(C)c2ncc(Nc3ccc(N4CCC(C(F)(F)F)CC4)cc3)cc21 [Compound 343, 1,3-dimethyl-6-((4-(4-(trifluoromethyl)piperidin-1-yl)phenyl)amino)-1,3-dihydro-2H-imidazo[4,5-b]pyridin-2-one]"
3,0.1 to 100 nM,"Cn1c(=O)oc2cc(Nc3ccc4c(c3)n(C)c(=O)n4C)ccc21 [Compound 344, 6-((1,3-dimethyl-2-oxo-2,3-dihydro-1H-benzo[d]imidazol-5-yl)amino)-3-methylbenzo[d]oxazol-2(3H)-one]"
4,0.1 to 100 nM,"CC1CCN(c2ccc(Nc3ccc4c(c3)n(C)c(=N)n4C)cc2)CC1 [Compound 345, 2-imino-1,3-dimethyl-N-(4-(4-methylpiperidin-1-yl)phenyl)-2,3-dihydro-1H-benzo[d]imidazol-5-amine]"
5,100 to 1000 nM,"CN1CCOc2cc(Nc3ccc(N4CCC(C(F)(F)F)CC4)cc3)ccc2C1=O [Compound 346, 4-methyl-8-((4-(4-(trifluoromethyl)piperidin-1-yl)phenyl)amino)-3,4-dihydrobenzo[f][1,4]oxazepin-5(2H)-one]"
6,0.1 to 100 nM,"Cn1ccc2cc(Nc3ccc(N4CCC(C(F)(F)F)CC4)cc3)ccc21 [Compound 347, 1-methyl-N-(4-(4-(trifluoromethyl)piperidin-1-yl)phenyl)-1H-indol-5-amine]"
7,0.1 to 100 nM,"Cn1ccc2ccc(Nc3ccc(N4CCC(C(F)(F)F)CC4)cc3)cc21 [Compound 348, 1-methyl-N-(4-(4-(trifluoromethyl)piperidin-1-yl)phenyl)-1H-indol-6-amine]"
8,0.1 to 100 nM,"Cn1c(=O)oc2ccc(Nc3ccc(N4CCC(C(F)(F)F)CC4)cc3)cc21 [Compound 349, 3-methyl-5-((4-(4-(trifluoromethyl)piperidin-1-yl)phenyl)amino)benzo[d]oxazol-2(3)-one]"
9,0.1 to 100 nM,"Cn1cnc2ccc(Nc3ccc(N4CCC(C(F)(F)F)CC4)cc3)cc21 [Compound 350, 1-methyl-N-(4-(4-(trifluoromethyl)piperidin-1-yl)phenyl)-1H-benzo[d]imidazol-6-amine]"
10,0.1 to 100 nM,"FC(F)(F)C1CCN(c2ccc(Nc3ccc4ccoc4c3)cc2)CC1 [Compound 351, N-(4-(4-(trifluoromethyl)piperidin-1-yl)phenyl)benzofuran-6-amine]"
11,0.1 to 100 nM,"CC1CCN(c2ccc(Nc3ccc4c(c3)c(N)nn4C)cc2)CC1 [Compound 352, 1-methyl-N5-(4-(4-methylpiperidin-1-yl)phenyl)-1H-indazole-3,5-diamine]"
12,0.1 to 100 nM,"CC1CCN(c2ccc(Nc3ccc4c(c3)c(C(=O)O)cn4C)cc2)CC1 [Compound 353, 1-methyl-5-((4-(4-methylpiperidin-1-yl)phenyl)amino)-1H-indole-3-carboxylic acid]"
13,0.1 to 100 nM,"COCCn1c(=O)n(C)c2cc(Nc3ccc(N4CCC(C(F)(F)F)CC4)cc3)ccc21 [Compound 354, 1-(2-methoxyethyl)-3-methyl-5-((4-(4-(trifluoromethyl)piperidin-1-yl)phenyl)amino)-1,3-dihydro-2H-benzo[d]imidazol-2-one]"
14,0.1 to 100 nM,"CN(C)CCn1c(=O)n(C)c2cc(Nc3ccc(N4CCC(C(F)(F)F)CC4)cc3)ccc21 [Compound 355, 1-(2-(dimethylamino)ethyl)-3-methyl-5-((4-(4-(trifluoromethyl)piperidin-1-yl)phenyl)amino)-1,3-dihydro-2H-benzo[d]imidazol-2-one]"
15,0.1 to 100 nM,"CC(=O)Nc1nn(C)c2ccc(Nc3ccc(N4CCC(C)CC4)cc3)cc12 [Compound 356, N-(1-methyl-5-((4-(4-methylpiperidin-1-yl)phenyl)amino)-1H-indazol-3-yl) acetamide]"
16,0.1 to 100 nM,"FC(F)(F)C1CCN(c2ccc(Nc3ccc4nc[nH]c4c3)cc2)CC1 [Compound 357, N-(4-(4-(trifluoromethyl)piperidin-1-yl)phenyl)-1H-benzo[d]imidazol-6-amine]"
17,0.1 to 100 nM,"FC(F)(F)C1CCN(c2ccc(Nc3ccc4cnoc4c3)cc2)CC1 [Compound 358, N-(4-(4-(trifluoromethyl)piperidin-1-yl)phenyl)benzo[d]isoxazol-6-amine]"
18,0.1 to 100 nM,"FC(F)(F)C1CCN(c2ccc(Nc3ccc4ocnc4c3)cc2)CC1 [Compound 359, N-(4-(4-(trifluoromethyl)piperidin-1-yl)phenyl)benzo[d]oxazol-5-amine]"
19,0.1 to 100 nM,"FC(F)(F)C1CCN(c2ccc(Nc3ccc4ncoc4c3)cc2)CC1 [Compound 360, N-(4-(4-(trifluoromethyl)piperidin-1-yl)phenyl)benzo[d]oxazol-6-amine]"
20,100 to 1000 nM,"CCN(CCC(=O)OC)c1ccc(Nc2ccc3c(c2)n(C)c(=O)n3C)cc1 [Compound 361, methyl 3-((4-((1,3-dimethyl-2-oxo-2,3-dihydro-1H-benzo[d]imidazol-5-yl)amino)phenyl)(ethyl)amino)propanoate]"
21,0.1 to 100 nM,"Cn1c(=O)n(C)c2cc(Nc3ccc(N4CCC(C(F)(F)F)CC4)nc3)ccc21 [Compound 362, 1,3-dimethyl-5-((6-(4-(trifluoromethyl)piperidin-1-yl)pyridin-3-yl)amino)-1,3-dihydro-2H-benzo[d]imidazol-2-one]"
22,0.1 to 100 nM,"Cn1c(=O)[nH]c2cc(Nc3ccc(N4CCC(C(F)(F)F)CC4)cc3)ccc21 [Compound 363, 1-methyl-5-((4-(4-(trifluoromethyl)piperidin-1-yl)phenyl)amino)-1,3-dihydro-2H-benzo[d]imidazol-2-one]"
23,0.1 to 100 nM,"Cn1ncc2cc(Nc3ccc(N4CCC(C(F)(F)F)CC4)cc3)ccc21 [Compound 364, 1-methyl-N-(4-(4-(trifluoromethyl)piperidin-1-yl)phenyl)-1H-indazol]"
24,0.1 to 100 nM,"CCNC(=O)c1cn(C)c2ccc(Nc3ccc(N4CCC(C)CC4)cc3)cc12 [Compound 365, N-ethyl-1-methyl-5-((4-(4-methylpiperidin-1-yl)phenyl)amino)-1H-indole-3-carboxamide]"
25,0.1 to 100 nM,"FC(F)(F)C1CCN(c2ccc(Nc3ccc4cn[nH]c4c3)cc2)CC1 [Compound 366, N-(4-(4-(trifluoromethyl)piperidin-1-yl)phenyl)-1H-indazol-6-amine]"
26,0.1 to 100 nM,"Cn1c(=O)n(CCN2CCCC2=O)c2ccc(Nc3ccc(N4CCC(C(F)(F)F)CC4)cc3)cc21 [Compound 367, 3-methyl-1-(2-(2-oxopyrrolidin-1-yl)ethyl)-5-((4-(4-(trifluoromethyl)piperidin-1-yl)phenyl)amino)-1,3-dihydro-2H-benzo[d]imidazol-2-one]"
27,0.1 to 100 nM,"CC1CCCCN1c1ccc(Nc2ccc3c(c2)n(C)c(=O)n3C)cc1 (centres unmarked) [Compound 368, 1,3-dimethyl-5-((4-(2-methylpiperidin-1-yl)phenyl)amino)-1,3-dihydro-2H-benzo[d]imidazol-2-one]"
28,100 to 1000 nM,"COCCOCCN(C)c1ccc(Nc2ccc3c(c2)n(C)c(=O)n3C)cc1 [Compound 369, 5-((4-((2-(2-methoxyethoxy)ethyl)(methyl)amino)phenyl)amino)-1,3-dimethyl-1,3-dihydro-2H-benzo[d]imidazol-2-one]"
29,0.1 to 100 nM,"Cn1c(N)nc2cc(Nc3ccc(N4CCC(C(F)(F)F)CC4)cc3)ccc21 [Compound 370, 1-methyl-N^5-(4-(4-(trifluoromethyl)piperidin-1-yl)phenyl)-1H-benzo[d]imidazole-2,5-diamine]"
